One assay has as its system A2780. Description: Cytotoxicity against human A2780 cells. The assay is classed as functional, cell-based.
For another assay, the system named is K562. Description: Cytotoxicity against human K562 cells. The assay is classed as functional, cell-based.

Each structure is given as a SMILES string. In brackets after ≈: the same amount, converted by molar mass.

`CC(/C=C/C=C(\C)c1ccc(C)c(=O)o1)=C1/C(=O)C[C@H]2[C@@]3(C)CCC(=O)C(C)(C)[C@@H]3CC[C@]12C` [STELLETTIN B]: the IC50 (usually the midpoint of a concentration-inhibition curve) in the assay on A2780 is 0.0051 µg/mL (≈ 0.011 µM); with K562 it was 0.93 µg/mL (≈ 2.01 µM).
Consider `CC(=O)O[C@@H]1CC[C@@]2(C)[C@@H](CC[C@]3(C)/C(=C(C)/C=C/C=C(\C)C(CC=C(C)C)O[C@@H]4OC[C@@H](O)[C@@H](O)[C@H]4O)C(=O)C[C@@H]23)C1(C)C` (stereo partly specified) [STELLIFERIN RIBOSIDE], for which the IC50 with A2780 was 38.1 µg/mL (≈ 60.6 µM); with K562, > 50 µg/mL.
On the same counts, the results for `C\C(=C/C=C/C(C)=C1/C(=O)C[C@H]2[C@@]3(C)CCC(=O)C(C)(C)[C@@H]3CC[C@]12C)c1ccc(C)c(=O)o1` [STELLETIN A] are 1.52 µg/mL (≈ 3.29 µM) and 3.82 µg/mL (≈ 8.26 µM).

Values taken from ChEMBL document CHEMBL1156494, “Stelliferin riboside, a triterpene monosaccharide isolated from the Fijian sponge Geodia globostellifera” (J Nat Prod, 2001).
